Assay [1] deals with male KK-A^y mice. Briefly: Hypotriglyceridemic action. The class given is in vivo, mouse. To be noted: 4 consecutive days, non-fasting, about 24 hours after final administration, vs control group. As to the method:
(§1) The triglyceride level in the plasma was measured using a commercially available assay kit (triglyceride G-test WAKO, Wako Pure Chemical Industries, Ltd.). The mice were grouped (5 mice per group) into a control group and an administration group, such that the mean and the standard deviation of the triglyceride level in the plasma of each group were nearly the same. Each test compound was suspended or dissolved in 5% gum arabic solution and administered orally to the administration group for 4 consecutive days from the next day. The 5% gum arabic solution was orally administered to the control group. Blood was drawn from the tail vein under a non-fasting state about 24 hours after the final administration and the triglyceride level in the plasma was measured. The decrease in the plasma triglyceride level was calculated from the following formula.
Decrease (%) in plasma triglyceride level=[(mean plasma triglyceride level of control group−mean plasma triglyceride level of test compound administration group)/mean plasma triglyceride level of control group]×100

For assay [2], the system named is male KK-A^y mice. Briefly: Hypoglycemic action (method A). To be noted: 4 consecutive days, non-fasting, about 24 hours after final administration, vs control group. The class given is in vivo, mouse. Here is the method:
as §1, with “glucose” for “triglyceride”, “(glucose CII-test” for “(triglyceride G-test”
(§2) Decrease (%) in plasma glucose level=[(mean plasma glucose level of control group−mean plasma glucose level of test compound administration group)/mean plasma glucose level of control group]×100

A further assay relates to 3T3-L1 cells. Nature of the assay: Triglyceride accumulation promoting action in 3T3-L1 cells. Type of assay: cell-based. Particulars: 10^−7 M test compound with 10 ng/ml insulin, 4 days; relative to control. Here is the method:
A culture medium of 80% confluent 3T3-L1 cells was removed and the cells were dissociated with 0.25% trypsin-EDTA solution. 5% FBS-DMEM (the same amount as the removed medium) was added and the obtained cell suspension was centrifuged at 25° C., 100×g for 1 min to give cell sediment and the supernatant was removed. The cells were re-suspended in a suitable amount of 5% FBS-DMEM medium and the cells were counted. 5% FBS-DMEM medium was added to adjust the concentration to 1×10^5 cells/ml and the mixture was dispensed by 1 ml to a 24 well plate. The cells were cultured with aeration of 5% CO2 at 37° C. for 2 days. Upon confirmation of a post-confluent state, the culture supernatant was changed to a medium containing 0.5 mM-IBMX, and the cells were cultured for 2 days. Then, the medium was changed to a medium containing 10 ng/ml insulin and 10^−7 M test compound and the cells were cultured further for 4 days. After removing the culture supernatant, the cells were lysed in a 0.1% SDS solution and the triglyceride amount was measured. The triglyceride accumulation (%) due to the potentiation of insulin activity by the test compound was calculated from the following formula.
[(triglyceride amount with addition of test compound−triglyceride amount of control)/triglyceride amount of control]×100

Assay [3] relates to male KK-A^y mice. Briefly: Hypoglycemic action and hypoinsulinemic action in insulin resistant diabetic mouse. The class given is in vivo. To be noted: 10 mg/kg orally once a day for 4 days, 24 hours after final administration, non-fasting; for Plasma glucose: control 507; for Insulin: plasma, control 43. As to the method: Blood was drawn from the tail vein of 12-week-old male KK-A^y mice under a non-fasting state, and the glucose level in the plasma was measured using a commercially available assay kit (glucose CII-test WAKO, Wako Pure Chemical Industries, Ltd.). The mice were grouped (5 mice per group) into a control group and an administration group, such that the mean glucose level in the plasma and the average body weight of each group, as well as the standard deviation thereof were nearly the same. The test compound (10 mg/kg) was suspended in 5% aqueous gum arabic solution and orally administered once a day to the administration group for 4 days from the next day. The 5% aqueous gum arabic solution was orally administered to the control group. Blood was drawn from the tail vein under a non-fasting state 24 hours after the final administration. The concentrations of plasma glucose and plasma insulin were measured.

Assay [4] relates to male KK-A^y mice. Nature of the assay: Hypoglycemic action (method B). The class given is in vivo, mouse. Particulars: 0.1 w/w % in powder feed for 4 days, blood at day 5, non-fasting, vs control group. Here is the method: The glucose level in the plasma was measured using a commercially available assay kit (glucose CII-test WAKO, Wako Pure Chemical Industries, Ltd.). The mice were grouped (5 mice per group) into a control group and an administration group, such that the mean and the standard deviation of the glucose level in the plasma of each group were nearly the same. Each test compound was admixed in a proportion of 0.1 w/w % with a powder feed (CE-2, Clea) and the feed mixture was fed to the administration group for 4 days from the next day. A regular powder feed was fed to the control group. At day 5, blood was drawn from the tail vein under a non-fasting state and the glucose level in the plasma was measured. The decrease in the plasma glucose level was calculated from the following formula.
as §2

For `Cc1oc(-c2ccccc2)nc1CCOc1ccc2c(c1)CN(Cc1ccccc1)[C@H](C(=O)O)C2` [Example 2, 2-Benzyl-7-[2-(5-methyl-2-phenyloxazol-4-yl)ethoxy]-1,2,3,4-tetrahydroisoquinoline-(3S)-carboxylic acid], the “Decrease (%) in plasma triglyceride level” value in the assay on male KK-A^y mice [1] (dose 10 mg/kg orally) is on record as 39.5%; in the assay with male KK-A^y mice [1] (dose 30 mg/kg orally), 54.3%. Moreover, the “Decrease (%) in plasma glucose level” value is given as 38.3% with male KK-A^y mice [2] (dose 10 mg/kg orally), 60.6% in the assay on male KK-A^y mice [2] (dose 30 mg/kg orally) and 69.2% with male KK-A^y mice [4]. Moreover, the “Triglyceride accumulation (%)” value with 3T3-L1 cells is 260.4%. The same compound registered a Plasma glucose in the assay with male KK-A^y mice [3] of 313 mg/dL. In addition, in the assay on male KK-A^y mice [3], the Insulin came to 26 ng/mL.

For the compound `Cc1oc(-c2ccccc2)nc1CCOc1ccc2c(c1)CN(C(=O)c1ccccc1)[C@H](C(=O)O)C2` [Example 10, 2-Benzoyl-7-[2-(5-methyl-2-phenyloxazol-4-yl)ethoxy]-1,2,3,4-tetrahydroisoquinoline-(3S)-carboxylic acid], in the assay with male KK-A^y mice [4], the “Decrease (%) in plasma glucose level” value is on record as 42.4%.

`Cc1oc(-c2ccccc2)nc1CCOc1ccc2c(c1)CN(CC(C)(C)C)[C@H](C(=O)O)C2` [Example 23, 2-(2,2-Dimethylpropyl)-7-[2-(5-methyl-2-phenyloxazol-4-yl)ethoxy]-1,2,3,4-tetrahydroisoquinoline-(3S.)-carboxylic acid]: the entries for the “Decrease (%) in plasma triglyceride level” value in the assay with male KK-A^y mice [1] (dose 10 mg/kg orally) and with male KK-A^y mice [1] (dose 30 mg/kg orally) were 30.4% and 50.4%, respectively. The figures for the “Decrease (%) in plasma glucose level” value with male KK-A^y mice [2] (dose 10 mg/kg orally) and with male KK-A^y mice [2] (dose 30 mg/kg orally) were 24.3% and 42.9%, respectively. Also, the “Triglyceride accumulation (%)” value in the assay with 3T3-L1 cells is 214.2%. The compound further returned a Plasma glucose in the assay on male KK-A^y mice [3] of 382 mg/dL. Moreover, in the assay on male KK-A^y mice [3], the Insulin turned out to be 28 ng/mL.

For the compound `Cc1oc(C(C)(C)C)nc1CCOc1ccc2c(c1)CN(Cc1ccccc1)[C@H](C(=O)O)C2` [Example 32, 2-Benzyl-7-[2-(5-methyl-2-tert-butyloxazol-4-yl)ethoxy]-1,2,3,4-tetrahydroisoquinoline-(3S)-carboxylic acid], the “Decrease (%) in plasma triglyceride level” value in the assay with male KK-A^y mice [1] (dose 30 mg/kg orally) is 32.5%. In the assay on male KK-A^y mice [2] (dose 30 mg/kg orally), the “Decrease (%) in plasma glucose level” value was determined as 36.4%. Moreover, in the assay on 3T3-L1 cells, the “Triglyceride accumulation (%)” value is 181.2%. In addition, in the assay on male KK-A^y mice [3], the Plasma glucose is 402 mg/dL and the Insulin worked out at 30 ng/mL.

With `C=CCCN1Cc2cc(OCCc3nc(-c4ccccc4)oc3C)ccc2C[C@H]1C(=O)O` [Example 42, 2-(3-Butenyl)-7-[2-(5-methyl-2-phenyloxazol-4-yl)ethoxy]-1,2,3,4-tetrahydroisoquinoline-(3S)-carboxylic acid], the “Decrease (%) in plasma triglyceride level” value in the assay on male KK-A^y mice [1] (dose 30 mg/kg orally) turned out to be 31.6%. Besides, the “Decrease (%) in plasma glucose level” value with male KK-A^y mice [2] (dose 10 mg/kg orally) was 27.6%. In addition, the “Decrease (%) in plasma glucose level” value in the assay on male KK-A^y mice [2] (dose 30 mg/kg orally) is on record as 49.6%. For the same compound, the “Triglyceride accumulation (%)” value with 3T3-L1 cells is reported as 193.6%. Further, in the assay with male KK-A^y mice [3], the Plasma glucose amounted to 308 mg/dL and the Insulin stood at 27 ng/mL.
